In test [1] the test system is TLR2 stimulated macrophages. The test is described as follows: TNF-α production by thioglycolate-recruited peritoneal macrophages after LPS or TLR2 stimuli (ELISA). To be noted: 12.5 ug/ml, added 0 h to +3 h after stimulus; stronger effect if administered early. It counts as cell-based, mouse. On the procedure:
The aim was to investigate whether, after stimulation, Rabeximod has the ability to decrease production of pro-inflammatory cytokines by macrophages isolated from the peritoneal cavity after thioglycolate recruitment. B10.Q mice with/without expression of functional TLR4 matched according to sex and age were used as donors of peritoneal macrophages. Mice were injected on day −5 with sterilized 3% Thioglycolate intraperitoneally. On day 0 the peritoneal cavity was washed with ice cold PBS to collect recruited cells. The cells were counted and added to plates at a final concentration of 200 000 cells/well in medium. Rabeximod diluted in a minimal amount DMSO and then DMEM to final concentration (12.5 ug/ml) was added simultaneously (h 0) or at time points+0.5 h, +1 h or +3 hours after LPS or TLR2 stimuli (Lipomannan). Cells were incubated for 24 hours before the whole plate was frozen. TNF-α ELISA was performed after one week using antibodies from e-biosciences and detected by europium. Mice were injected on […] (1 ml) intraperitoneally. […] TNFα production was determined using a ready-SET-go! […]
In general terms: ELISA stands for enzyme-linked immunosorbent assay.

The subject of test [2] is wild type and TLR4 deficient mice. Description: Collagen antibody-induced arthritis (CAIA) boosted with TLR stimuli in mice, arthritis scoring. Format: in vivo, mouse. The settings on record: for arthritis severity: 40 mg/kg subcutaneously every second day, day 5 to 15. An excerpt:
QB mice (10-20 weeks) were generated from a (BALB/cxB10.Q) F1 cross. C57BL/10ScNJ mice (Tlr4^lps-del), hereafter called Tlr4^del, were ordered from The Jackson Laboratory (The Jackson Laboratory, Bar Harbor, Me., USA). These mice have deletion of the Tlr4 gene that results in absence of mRNA and protein and is thus defective in response to LPS stimulation. These mice were crossed together with C57BL/10.Q mice from Medical Inflammation Research, Lund university, Lund, Sweden in order to generate mice expressing major histocompatibility complex (MHC) Aq. Mice were kept and bred in a climate-controlled environment with a 12 h light/dark cycle, fed standard rodent chow and water ad libitum in the animal facility of Medical Inflammation Research, Lund University, Lund, Sweden.
Litters were genotyped for MHC using microsatellite marker D17mit230. Genotyping of Tlr4 was performed according to an earlier described method. Briefly, DNA was prepared from biopsies and primers flanking the 70 kb deletion or amplifying the wild-type sequence absent in the TLR4 deleted mice were used.
The mice were matched according to age and sex, and littermates were used in all experiments. All experiments were approved according to Malmö/Lund ethical committee license M107-07.
Male mice, older than 8 weeks, were injected intravenously on day 0 with a cocktail of four monoclonal antibodies (4 mg in a total volume of 310 μl/mouse) containing M2139, CIIC1, CIIC2 and UL1 antibodies binding to J1, C1^I, D3 and U1 epitopes of CII in order to induce CAIA. Day 5 mice were injected with LPS from Escherichia coli (Sigma-Aldrich, St Louis, Mis-souri, USA), deoxycytoylate-phosphate-deoxyguanylate (CpG) DNA (sequence 1668, MWG; Eurofins MWG, Erdersberg, Germany) or lipomannan (LM) from Mycobacterium segma-tis (InvivoGen, San Diego, Calif., USA) intraperitoneally to boost disease (35-50 μg/mouse in 1 ml phosphate-buffered saline (PBS)).
Mice were blindly scored daily to every second day until the end of the experiment. […]

A further test concerns murine arthritis model. To be noted: murine arthritis model in mice; cited from earlier work.
Test [3] has as its system collagen-induced arthritis model. The settings on record: dark agouti rats, daily subcutaneous administration from the day of immunization; cited from earlier work.

SMILES strings stand for the structures.

Consider one compound from patent publication US20230226048A1, “NEW USE OF RABEXIMOD” (Cyxone AB, priority 2020, published 2023).

For `Cc1cc2nc3c4cc(Cl)ccc4n(CC(=O)NCCN(C)C)c3nc2cc1C` [Rabeximod, 9-Chloro-2,3-dimethyl-6-(N,N-dimethylaminoethylamino-2-oxoethyl)-6H-indolo-[2,3-b]quinoxaline], the “TNF-α production from TLR2 stimulated macrophages” value in test [1] is “decreases”. Besides, the arthritis severity result in test [2] (TLR4 deficient mice) is reported as “reduces”. In addition, the “activation of macrophages in animal models of arthritis” value in test [2] (downstream mechanism, likely TLR2 signalling pathway) is recorded as “inhibits”. For the same compound, in test [2] (wild type mice), the arthritis severity entry is reported as “reduces”. Also, in the test with murine arthritis model, the arthritogenic scoring entry was “statistically significant durable reductions”, the paw swelling entry is reported as “statistically significant durable reductions” and the paw thickness entry was “statistically significant durable reductions”. Also, in test [3], the arthritis severity entry is recorded as “suppressed” and the “onset of clinical arthritis” value was “significantly delayed”.
